The source made the active and inactive calls. No cut-off for these calls is given here.
Experiments:
[1] = target: T1, Beta-galactosidase (Aspergillus niger) (UniProt P29853); details: 1 mM
T1 sequence (whole entry): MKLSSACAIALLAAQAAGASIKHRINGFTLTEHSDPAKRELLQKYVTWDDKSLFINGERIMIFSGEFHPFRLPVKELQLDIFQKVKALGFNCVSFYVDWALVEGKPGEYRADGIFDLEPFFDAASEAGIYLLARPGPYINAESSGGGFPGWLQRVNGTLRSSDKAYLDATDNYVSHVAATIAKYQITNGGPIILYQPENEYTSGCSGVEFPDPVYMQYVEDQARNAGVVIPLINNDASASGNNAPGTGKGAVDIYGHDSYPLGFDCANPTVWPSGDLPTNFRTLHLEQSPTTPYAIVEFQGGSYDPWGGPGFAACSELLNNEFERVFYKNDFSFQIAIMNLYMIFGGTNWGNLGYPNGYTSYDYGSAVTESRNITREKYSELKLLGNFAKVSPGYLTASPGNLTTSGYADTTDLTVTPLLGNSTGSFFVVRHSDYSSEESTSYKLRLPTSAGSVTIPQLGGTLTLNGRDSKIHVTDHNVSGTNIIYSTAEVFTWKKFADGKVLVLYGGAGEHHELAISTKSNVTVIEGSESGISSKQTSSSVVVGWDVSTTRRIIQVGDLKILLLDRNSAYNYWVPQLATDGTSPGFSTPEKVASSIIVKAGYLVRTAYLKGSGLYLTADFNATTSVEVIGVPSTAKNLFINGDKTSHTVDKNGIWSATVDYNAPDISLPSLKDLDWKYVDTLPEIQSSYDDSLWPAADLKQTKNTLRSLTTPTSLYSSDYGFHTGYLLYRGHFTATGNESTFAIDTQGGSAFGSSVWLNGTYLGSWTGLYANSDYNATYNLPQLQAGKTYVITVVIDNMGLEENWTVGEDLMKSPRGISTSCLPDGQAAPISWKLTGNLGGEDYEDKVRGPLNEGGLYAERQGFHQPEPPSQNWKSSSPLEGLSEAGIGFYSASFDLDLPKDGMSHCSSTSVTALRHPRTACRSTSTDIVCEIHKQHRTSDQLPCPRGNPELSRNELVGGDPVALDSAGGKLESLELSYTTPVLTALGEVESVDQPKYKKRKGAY
Description: Percent inhibition against Beta-D-galactosidase of Aspergillus niger at 1 mM

[2] = target: T2, Beta-galactosidase (Bos taurus) (UniProt Q58D55); assay: Percent inhibition against Beta-D-galactosidase of bovine liver at 1 mM
T2 sequence (whole entry): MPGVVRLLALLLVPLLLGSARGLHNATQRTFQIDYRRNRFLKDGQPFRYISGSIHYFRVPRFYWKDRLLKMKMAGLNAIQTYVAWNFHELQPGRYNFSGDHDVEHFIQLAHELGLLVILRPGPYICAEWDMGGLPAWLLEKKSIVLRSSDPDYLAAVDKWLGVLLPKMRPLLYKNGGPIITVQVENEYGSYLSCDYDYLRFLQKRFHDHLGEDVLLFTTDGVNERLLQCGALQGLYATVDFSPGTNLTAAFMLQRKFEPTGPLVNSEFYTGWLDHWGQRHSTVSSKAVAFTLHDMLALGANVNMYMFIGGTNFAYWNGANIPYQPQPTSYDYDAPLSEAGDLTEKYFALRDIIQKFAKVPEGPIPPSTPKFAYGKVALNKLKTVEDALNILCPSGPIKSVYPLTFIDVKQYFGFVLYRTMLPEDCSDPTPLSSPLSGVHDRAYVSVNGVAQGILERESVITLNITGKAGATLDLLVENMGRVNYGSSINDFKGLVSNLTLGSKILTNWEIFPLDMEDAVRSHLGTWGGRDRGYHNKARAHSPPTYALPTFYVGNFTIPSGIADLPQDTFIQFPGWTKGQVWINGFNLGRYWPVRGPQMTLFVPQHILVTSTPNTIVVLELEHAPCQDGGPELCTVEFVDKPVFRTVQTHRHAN

Canavalia ensiformis [3] = assay: Percent inhibition against Alpha-mannosidase of Jack bean at 1 mM
Prunus dulcis [4] = assay: Inhibitory activity against Alpha-mannosidase of Almonds at 1 mM; No inhibition
[5] = target: Beta-galactosidase (Escherichia coli) (UniProt Q8VNN2); assay: Inhibitory activity against Beta-D-galactosidase of Escherichia coli at 1 mM; No inhibition
[6] = target: Glucoamylase (Aspergillus niger) (UniProt P69328); assay: Inhibitory activity against Amyloglucosidase of Aspergillus niger at 1 mM; No inhibition
[7] = target: T3, Tissue alpha-L-fucosidase (Homo sapiens) (UniProt P04066); assay: Percent inhibition against alpha-L-Fucosidase of human placenta at 1 mM
T3 sequence (whole entry): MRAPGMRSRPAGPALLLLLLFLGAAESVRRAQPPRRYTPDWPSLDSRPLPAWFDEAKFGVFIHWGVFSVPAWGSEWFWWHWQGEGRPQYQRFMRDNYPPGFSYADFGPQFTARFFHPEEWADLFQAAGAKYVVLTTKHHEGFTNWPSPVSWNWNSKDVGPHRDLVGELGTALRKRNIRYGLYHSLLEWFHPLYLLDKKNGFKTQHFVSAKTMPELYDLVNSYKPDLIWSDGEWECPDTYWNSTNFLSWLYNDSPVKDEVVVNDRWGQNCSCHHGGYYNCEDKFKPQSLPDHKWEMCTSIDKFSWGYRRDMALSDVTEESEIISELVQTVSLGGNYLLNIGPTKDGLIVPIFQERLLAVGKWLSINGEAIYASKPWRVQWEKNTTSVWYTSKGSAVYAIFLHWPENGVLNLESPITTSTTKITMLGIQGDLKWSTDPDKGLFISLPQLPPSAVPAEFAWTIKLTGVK

Prunus dulcis [8] = assay: Inhibitory activity against Beta-glucosidase of almonds at 1 mM; No inhibition
Canavalia ensiformis [9] = assay: Inhibitory activity against Alpha-mannosidase of Jack bean at 1 mM; No inhibition
Bos taurus [10] = species on record: Bos taurus; assay: Inhibitory activity against alpha-L-Fucosidase of bovine epididymis at 1 mM; No inhibition
Gallus gallus = species on record: Gallus gallus; assay: Inhibitory activity against alpha-N-acetylgalactosaminidase of chicken liver at 1 mM; No inhibition
[11] = tested on: Caldicellulosiruptor saccharolyticus; assay: Inhibitory activity against Beta-glucosidase of Caldocellum saccharolyticum at 1 mM; No inhibition
maltase (Oryza sativa) [12] = assay: Inhibitory activity against maltase of rice at 1 mM; No inhibition
Escherichia coli = assay: Inhibitory activity against Alpha-galactosidase of Escherichia coli at 1 mM; No inhibition
Canavalia ensiformis [13] = assay: Inhibitory activity against Beta-D-galactosidase of Jack bean at 1 mM; No inhibition
Rhizopus = assay: Inhibitory activity against Amyloglucosidase of Rhizopus mold at 1 mM; No inhibition
[14] = tested on: isomaltase (Saccharomyces cerevisiae); assay: Inhibitory activity against isomaltase of baker yeast at 1 mM; No inhibition
Coffea arabica = assay: Inhibitory activity against Alpha-galactosidase of coffee bean at 1 mM; No inhibition
[15] = tested on: maltase (Saccharomyces cerevisiae); assay: Inhibitory activity against maltase of yeast at 1 mM; No inhibition
Aspergillus niger = assay: Inhibitory activity against Alpha-galactosidase of Aspergillus niger at 1 mM; No inhibition
[16] = target: T1, Beta-galactosidase (Aspergillus niger); assay: Inhibitory activity against Beta-D-galactosidase of Aspergillus niger at 1 mM; No inhibition
[17] = target: T3, Tissue alpha-L-fucosidase (Homo sapiens); assay: Inhibitory activity against alpha-L-Fucosidase of human placenta at 1 mM; No inhibition
Helix pomatia = assay: Inhibitory activity against Beta-mannosidase of Helix pomatia at 1 mM; No inhibition
[18] = tested on: Beta-N-acetylglucosaminidase (Canavalia ensiformis); assay: Inhibitory activity against Beta-N-acetylglucosaminidase of Jack bean at 1 mM; No inhibition
[19] = tested on: Beta-N-acetylglucosaminidase (Bos taurus); assay: Inhibitory activity against Beta-N-acetylglucosaminidase of bovine epididymis B at 1 mM; No inhibition
Aspergillus oryzae = assay: Inhibitory activity against Beta-D-galactosidase of Aspergillus oryzae at 1 mM; No inhibition
[20] = tested on: Beta-N-acetylglucosaminidase (Bos taurus); assay: Inhibitory activity against Beta-N-acetylglucosaminidase of bovine epididymis A at 1 mM; No inhibition
Prunus dulcis [21] = assay: Percent inhibition against Alpha-mannosidase of Almonds at 1 mM
[22] = target: T4, Tissue alpha-L-fucosidase (Homo sapiens, UniProt P04066); assay: Inhibitory concentration against alpha-L-Fucosidase of human placenta
T4 sequence (P04066 whole entry): T3 sequence (whole entry)

Bos taurus [23] = species on record: Bos taurus; assay: Percent inhibition against alpha-L-Fucosidase of bovine epididymis at 1 mM
[24] = target: Glucoamylase (Aspergillus niger) (UniProt P69328); assay: Percent inhibition against Amyloglucosidase of Aspergillus niger at 1 mM
maltase (Oryza sativa) [25] = assay: Inhibitory activity against maltase of rice at 1 mM

Sequence of Glucoamylase (Aspergillus niger) (P69328 whole entry): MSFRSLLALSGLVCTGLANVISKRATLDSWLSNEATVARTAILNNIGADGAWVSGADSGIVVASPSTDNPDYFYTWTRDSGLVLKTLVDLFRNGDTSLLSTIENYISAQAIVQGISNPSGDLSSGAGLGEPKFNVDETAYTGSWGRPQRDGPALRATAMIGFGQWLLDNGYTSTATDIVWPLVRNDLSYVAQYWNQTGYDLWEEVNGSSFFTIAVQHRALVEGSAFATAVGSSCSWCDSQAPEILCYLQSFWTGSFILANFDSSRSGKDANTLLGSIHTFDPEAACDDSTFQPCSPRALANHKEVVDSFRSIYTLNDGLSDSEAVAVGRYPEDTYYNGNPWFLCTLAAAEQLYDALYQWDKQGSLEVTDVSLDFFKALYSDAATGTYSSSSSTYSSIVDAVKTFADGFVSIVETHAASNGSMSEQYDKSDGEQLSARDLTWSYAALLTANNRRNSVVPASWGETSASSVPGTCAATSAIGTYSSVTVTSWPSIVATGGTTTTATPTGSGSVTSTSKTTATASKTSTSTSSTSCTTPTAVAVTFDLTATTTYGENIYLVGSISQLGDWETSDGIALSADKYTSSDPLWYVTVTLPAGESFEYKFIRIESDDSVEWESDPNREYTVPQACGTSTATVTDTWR
Sequence of Beta-galactosidase (Escherichia coli) (Q8VNN2 whole entry, looked up): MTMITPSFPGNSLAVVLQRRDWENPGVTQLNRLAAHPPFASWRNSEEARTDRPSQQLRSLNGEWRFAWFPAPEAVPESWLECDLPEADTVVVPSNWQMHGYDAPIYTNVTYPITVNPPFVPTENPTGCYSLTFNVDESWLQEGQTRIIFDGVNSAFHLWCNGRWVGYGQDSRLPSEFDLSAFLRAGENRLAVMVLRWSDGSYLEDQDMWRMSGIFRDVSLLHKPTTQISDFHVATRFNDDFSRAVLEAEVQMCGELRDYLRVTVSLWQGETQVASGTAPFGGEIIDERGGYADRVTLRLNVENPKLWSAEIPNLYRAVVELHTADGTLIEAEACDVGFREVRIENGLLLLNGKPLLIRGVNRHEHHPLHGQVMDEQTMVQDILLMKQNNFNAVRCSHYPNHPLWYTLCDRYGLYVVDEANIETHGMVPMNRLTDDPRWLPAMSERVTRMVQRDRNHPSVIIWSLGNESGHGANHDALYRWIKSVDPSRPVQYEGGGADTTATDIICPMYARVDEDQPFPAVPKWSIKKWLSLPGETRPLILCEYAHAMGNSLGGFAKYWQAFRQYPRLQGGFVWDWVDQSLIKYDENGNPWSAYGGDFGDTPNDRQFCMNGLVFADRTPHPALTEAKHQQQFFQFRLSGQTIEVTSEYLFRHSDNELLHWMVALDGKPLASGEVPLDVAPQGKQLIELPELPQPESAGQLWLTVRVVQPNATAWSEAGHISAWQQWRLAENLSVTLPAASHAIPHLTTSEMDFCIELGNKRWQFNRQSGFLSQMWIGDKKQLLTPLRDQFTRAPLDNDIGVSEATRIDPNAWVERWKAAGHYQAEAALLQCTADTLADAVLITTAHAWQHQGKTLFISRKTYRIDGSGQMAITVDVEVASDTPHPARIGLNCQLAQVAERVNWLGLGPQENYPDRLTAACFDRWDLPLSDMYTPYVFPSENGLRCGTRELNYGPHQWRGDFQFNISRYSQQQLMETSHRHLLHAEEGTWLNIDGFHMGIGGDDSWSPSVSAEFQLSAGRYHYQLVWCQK

Row | Compound | inhibition [2] [%] | inhibition (Canavalia ensiformis [3]) [%] | inhibition (Prunus dulcis [4]) | inhibition [5] | inhibition [6] | inhibition (Prunus dulcis [8]) | inhibition (Canavalia ensiformis [9]) | inhibition (Gallus gallus) | inhibition [11] | inhibition (Escherichia coli) | inhibition (Canavalia ensiformis [13]) | inhibition (Rhizopus) | inhibition [14] | inhibition (Coffea arabica) | inhibition [15] | inhibition (Aspergillus niger) | inhibition [16] | inhibition (Helix pomatia) | inhibition [18] | inhibition [19] | further results
1 | Cc1oc(C2NCC(O)C2O)cc1CO (configuration not stated) | 50 | – | inactive | inactive | inactive | inactive | inactive | inactive | No inhibition | inactive | inactive | inactive | inactive | inactive | inactive | inactive | inactive | No inhibition | inactive | inactive | inhibition (Bos taurus [10]): inactive; inhibition (maltase (Oryza sativa) [12]): inactive; inhibition [17]: inactive; inhibition (Aspergillus oryzae): inactive; inhibition [20]: inactive
2 | CCN(CC)C(=O)c1cc(C2NCC(O)C2O)oc1C (configuration not stated) | 58 | 27 | – | inactive | inactive | – | – | – | – | – | – | – | – | – | – | – | inactive | – | – | – | inhibition (Prunus dulcis [21]): 31%
3 | CCNC(=O)c1cc(C2NCC(O)C2O)oc1C (configuration not stated) | 52 | 29 | – | inactive | inactive | – | – | – | – | – | – | – | – | – | – | – | inactive | – | – | – | inhibition (Prunus dulcis [21]): 32%

Second part, led by results:

Row | inhibition [2] [%] | inhibition (Canavalia ensiformis [3]) [%] | inhibition (Prunus dulcis [4]) | inhibition [5] | inhibition [6] | inhibition (Prunus dulcis [8]) | inhibition (Canavalia ensiformis [9]) | inhibition (Gallus gallus) | inhibition [11] | inhibition (Escherichia coli) | inhibition (Canavalia ensiformis [13]) | inhibition (Rhizopus) | inhibition [14] | inhibition (Coffea arabica) | inhibition [15] | inhibition (Aspergillus niger) | inhibition [16] | inhibition (Helix pomatia) | inhibition [18] | inhibition [19] | Compound | further results
4 | 57 | 38 | inactive | inactive | inactive | – | – | – | – | – | – | – | – | – | – | – | – | – | – | – | CCOC(=O)c1cc(C2NCC(O)C2O)oc1C (configuration not stated) | inhibition [1]: 80%; inhibition [7]: 76%
5 | 39 | – | inactive | inactive | inactive | inactive | inactive | inactive | No inhibition | inactive | inactive | inactive | inactive | inactive | inactive | inactive | inactive | No inhibition | inactive | inactive | Cc1oc(C2NCC(O)C2O)cc1C(=O)Nc1ccccc1 (configuration not stated) | IC50 [22]: 1000 µM; inhibition (maltase (Oryza sativa) [12]): inactive; inhibition (Bos taurus [23]): < 10%; inhibition (Aspergillus oryzae): inactive; inhibition [7]: 51%; inhibition [20]: inactive
6 | 38 | – | – | inactive | – | – | – | – | – | – | – | – | – | – | – | – | inactive | – | – | – | Cc1oc(C2NCC(O)C2O)cc1C(=O)NC(C)C (configuration not stated) | inhibition (Prunus dulcis [21]): 29%; inhibition [24]: 23%
7 | 30 | – | inactive | inactive | inactive | inactive | inactive | inactive | No inhibition | inactive | inactive | inactive | inactive | inactive | inactive | inactive | inactive | No inhibition | inactive | inactive | Cc1oc(C2NCC(O)C2O)cc1C(=O)O (configuration not stated) | inhibition (Bos taurus [10]): inactive; inhibition (maltase (Oryza sativa) [25]): No inhibition; inhibition [17]: inactive; inhibition (Aspergillus oryzae): inactive; inhibition [20]: inactive
